# Measured values published in US20210290816A1, “LIQUID EMBOLICS” (MicroVention, Inc., priority 2020, published 2021).
# Counter-ions that a name gives are not always drawn.
# Columns and labels:
# [1] = In vitro elution of carmustine from PHIL® solution; type: physicochemical; conditions: 50 mg in 1 mL 25 wt % PHIL®, 99 mL distilled water, room temperature
# Procedure: (§1) Fifty mg of carmustine are dissolved in 1 mL of 25 wt % PHIL® solution, which includes triiodophenol-(lactide-co-glycolide) acrylate and hydroxyethyl methacrylate in dimethyl sulfoxide. The 1 mL of 25 wt % PHIL®/carmustine solution is precipitated in 99 mL of a dissolution medium, including distilled water at room temperature. At 2, 5, 9, 14, 20, 27, 35, 44, 54, 65 and 90 minutes, 1 mL of the supernatant is pipetted out and placed in a HPLC vial.
# The concentration of carmustine in each sample is determined using an Agilent 1100 HPLC system. The chromatographic analysis is performed with a Primesep 100 column (3.2 mm×50 mm, 3 μm). The mobile phase includes 10% methanol and 90% 10 mM potassium phosphate buffer solution pH 3 with 5% acetonitrile and 7.2 mM triethylamine delivered at 1 mL/min. The injection volume is 3 μL and the wavelength of the ultraviolet detector is 230 nm. The calibration curve is prepared from 10 to 1000 ppm of carmustine. The amount of carmustine released and relative percentage are calculated from the concentration data.
# [2] = 50 mg in 1 mL 25 wt % PHIL®, 99 mL distilled water, room temperature
# Procedure: as §1, with “cyclophosphamide” for “carmustine”, “PHIL®/cyclophosphamide” for “PHIL®/carmustine”
# The concentration of cyclophosphamide in each sample is determined using an Agilent 1100 HPLC system. The chromatographic analysis is performed with a Primesep 100 column (3.2 mm×50 mm, 3 μm). The mobile phase includes 5% acetonitrile and 95% HPLC water with 5% acetonitrile delivered at 1 mL/min. The injection volume is 25 μL and the wavelength of the ultraviolet detector is 197 nm. The calibration curve is prepared from 10 to 1000 ppm of cyclophosphamide. The amount of cyclophosphamide released and relative percentage are calculated from the concentration data.
# [3] = In vitro elution of doxorubicin from PHIL® solution; type: physicochemical; conditions: 50 mg doxorubicin hydrochloride in 1 mL 25 wt % PHIL®, 99 mL 10 mM potassium phosphate buffer pH 4.0, room temperature
# Procedure: as §1, with “doxorubicin hydrochloride” for “carmustine”, “PHIL®/doxorubicin” for “PHIL®/carmustine”, “10 mM potassium phosphate buffer solution pH 4.0” for “distilled water”
# The concentration of doxorubicin in each sample is determined using an Agilent 1100 HPLC system. The chromatographic analysis is performed with an Agilent Extended-C18 column (4.6 mm×50 mm, 3.5 μm). The mobile phase includes 18% acetonitrile and 82% 10 mM potassium phosphate buffer solution pH 3 with 5% acetonitrile and 7.2 mM triethylamine delivered at 1 mL/min. The injection volume is 3 μL and the wavelength of the ultraviolet detector is 234 nm. The calibration curve is prepared from 10 to 1000 ppm of doxorubicin. The amount of doxorubicin released and relative percentage are calculated from the concentration data.
# [4] = In vitro elution of gemcitabine from PHIL® solution; type: physicochemical; conditions: 50 mg in 1 mL 25 wt % PHIL®, 99 mL PBS, room temperature
# Procedure: The chromatographic analysis is performed with an Agilent Extended-C18 column (4.6 mm×50 mm, 3.5 μm). […] The injection volume is 3 μL and the wavelength of the ultraviolet detector is 275 nm.
# [5] = tested on: Canine Liver; assay: In vivo evaluation of PHIL LV liquid embolic with irinotecan in canine liver
# Procedure: A canine is anesthetized and a 6 Fr sheath is inserted into the femoral artery via a cutdown. A 6 Fr Glidecath is advanced retrograde into the celiac trunk and further into the hepatic artery. Following angiography, a Scepter balloon (4 mm×10 mm) is advanced through the Glidecath and into a branch of the hepatic artery. […] Blood is collected at 5, 15, 30, 60, and 120 minutes post-embolization for irinotecan quantification.
# [6] = In vitro elution of irinotecan from PHIL® solution; type: physicochemical; conditions: 50 mg irinotecan hydrochloride in 1 mL 25 wt % PHIL®, 99 mL 10 mM potassium phosphate buffer pH 4.0, room temperature
# Procedure: (§2) The chromatographic analysis is performed with an Agilent Extended-C18 column (4.6 mm×50 mm, 3.5 μm). The mobile phase includes of 18% acetonitrile and 82% 10 mM potassium phosphate buffer solution pH 3 with 5% acetonitrile and 7.2 mM triethylamine delivered at 1 mL/min. The injection volume is 2 μL and the wavelength of the ultraviolet detector is 223 nm.
# [7] = In vitro elution of oxaliplatin from PHIL® solution (ICP-MS platinum); type: physicochemical; conditions: 50 mg in 1 mL 25 wt % PHIL®, 50 mL PBS replaced at each time point, room temperature
# Procedure: The remaining supernatant is poured out and the precipitates are mixed with a fresh 50 mL of the dissolution medium at room temperature.
# Samples are prepared for ICP-MS analysis to measure the platinum concentration in the supernatant by mixing a sample portion (1 mL) with 4 mL of 2% nitric acid (5-fold dilution) or a sample portion (2.5 mL) with 0.05 mL of 2% nitric acid (undiluted). The calibration curve is prepared from 0.5 to 100 ppm of platinum.
# [8] = In vitro elution of paclitaxel from PHIL® solution; type: physicochemical; conditions: 50 mg in 1 mL 25 wt % PHIL®, 199 mL 45:55 acetonitrile/10 mM potassium phosphate buffer pH 4.5, room temperature
# Procedure: Fifty mg of paclitaxel are dissolved in 1 mL of 25 wt % PHIL® solution, which includes triiodophenol-(lactide-co-glycolide) acrylate and hydroxyethyl methacrylate in dimethyl sulfoxide. The 1 mL of 25 wt % PHIL®/Paclitaxel solution is precipitated in 199 mL of a dissolution medium, consisting of 45:55 acetonitrile/10 mM potassium phosphate buffer solution pH 4.5 at room temperature. At 2, 5, 9, 14, 20, 27, 35, 44, 54, 65 and 90 minutes, 1 mL of the supernatant is pipetted out and placed in a HPLC vial. The concentration of paclitaxel in each sample is determined using an Agilent 1100 HPLC system. The chromatographic analysis is performed with an Agilent Extended-C18 column (4.6 mm×50 mm, 3.5 μm). The mobile phase includes 50% acetonitrile and 50% 5% acetonitrile in water delivered at 1 mL/min. The injection volume is 10 μL and the wavelength of the ultraviolet detector was 227 nm. The calibration curve is prepared from 5 to 500 ppm of paclitaxel. The amount of paclitaxel released and relative percentage are calculated from the concentration data.
# [9] = In vitro elution of sorafenib from PHIL® solution; type: physicochemical; conditions: 50 mg in 1 mL 25 wt % PHIL®, 999 mL 70:30 acetonitrile/10 mM potassium phosphate buffer pH 4.3, room temperature
# Procedure: The 1 mL of 25 wt % PHIL®/sorafenib solution is precipitated in 999 mL of a dissolution medium, including 70:30 acetonitrile/10 mM potassium phosphate buffer solution pH 4.3 at room temperature.
# as §2, with “includes 50%” for “includes of 18%”, “and 50%” for “and 82%”, “is 3” for “is 2”, “is 263” for “is 223”, “nm. The calibration curve is prepared from 1 to 100 ppm of sorafenib.” for “nm.”
# [10] = In vitro elution of sunitinib from PHIL® solution; type: physicochemical; conditions: 50 mg sunitinib malate in 1 mL 25 wt % PHIL®, 999 mL phosphate buffered saline
# Procedure: The 1 mL of 25 wt % PHIL®/sunitinib solution is precipitated in 999 mL of a dissolution medium, including phosphate buffered saline.
# as §2, with “includes 22%” for “includes of 18%”, “and 78%” for “and 82%”, “is 3” for “is 2”, “is 429” for “is 223”, “nm. The calibration curve is prepared from 1 to 100 ppm of sunitinib.” for “nm.”
compound,measurement,setting,value
O=NN(CCCl)C(=O)NCCCl [carmustine],total amount of carmustine eluted,[1]; first 90 minutes,26 mg per 1 mL of PHIL®
same,sharp increase of carmustine eluted,[1]; within the first 35 minutes,21 mg
O=P1(N(CCCl)CCCl)NCCCO1 (centres unmarked) [cyclophosphamide],total amount of cyclophosphamide eluted,[2]; first 90 minutes,38 mg per 1 mL of PHIL®
same,sharp increase of cyclophosphamide eluted,[2]; within the first 35 minutes,35 mg
"COc1cccc2c1C(=O)c1c(O)c3c(c(O)c1C2=O)C[C@@](O)(C(=O)CO)C[C@@H]3O[C@H]1C[C@H](N)[C@H](O)[C@H](C)O1 [doxorubicin, doxorubicin hydrochloride]",total amount of doxorubicin eluted,[3]; first 90 minutes,38 mg per 1 mL of PHIL®
same,sharp increase of doxorubicin eluted,[3]; within the first 14 minutes,29 mg
Nc1ccn([C@@H]2O[C@H](CO)[C@@H](O)C2(F)F)c(=O)n1 [gemcitabine],total amount of gemcitabine eluted,[4]; first 90 minutes,43 mg per 1 mL of PHIL®
same,sharp increase of gemcitabine eluted,[4]; within the first 9 minutes,34 mg
"CCc1c2c(nc3ccc(OC(=O)N4CCC(N5CCCCC5)CC4)cc13)-c1cc3c(c(=O)n1C2)COC(=O)[C@]3(O)CC [irinotecan, irinotecan hydrochloride]","irinotecan in the blood, rapid rise to","[5]; 1.5 mL PHIL LV loaded with 75 mg irinotecan into hepatic artery branch, blood 5-120 minutes post-embolization",about 300 ppb
same,tapering of irinotecan in the blood back to baseline,"[5]; 1.5 mL PHIL LV loaded with 75 mg irinotecan, blood collected to 120 minutes",beyond the timescale of the experiment
same,total amount of irinotecan eluted,[6]; first 90 minutes,31 mg per 1 mL of PHIL®
same,sharp increase of irinotecan eluted,[6]; within the first 9 minutes,24 mg
O=C1[O][Pt]2([NH][C@@H]3CCCC[C@H]3[NH]2)[O]C1=O [oxaliplatin],total amount of oxaliplatin eluted,[7]; first 80 minutes,41 mg per 1 mL of PHIL®
same,sharp increase of oxaliplatin eluted,[7]; within the first 15 minutes,37 mg
CC(=O)O[C@H]1C(=O)[C@@]2(C)[C@H]([C@H](OC(=O)c3ccccc3)[C@]3(O)C[C@H](OC(=O)[C@H](O)[C@@H](NC(=O)c4ccccc4)c4ccccc4)C(C)=C1C3(C)C)[C@]1(OC(C)=O)CO[C@@H]1C[C@@H]2O [paclitaxel],total amount of paclitaxel eluted,[8]; first 90 minutes,38 mg per 1 mL of PHIL®
same,sharp increase of paclitaxel eluted,[8]; within the first 9 minutes,30 mg
CNC(=O)c1cc(Oc2ccc(NC(=O)Nc3ccc(Cl)c(C(F)(F)F)c3)cc2)ccn1 [sorafenib],total amount of sorafenib eluted,[9]; first 90 minutes,42 mg per 1 mL of PHIL®
same,sharp increase of sorafenib eluted,[9]; within the first 2 minutes,38 mg
"CCN(CC)CCNC(=O)c1c(C)[nH]c(/C=C2\C(=O)Nc3ccc(F)cc32)c1C [sunitinib, sunitinib malate]",total amount of sunitinib eluted,[10]; first 65 minutes,16 mg per 1 mL of PHIL®
same,sharp increase of sunitinib eluted,[10]; within the first 2 minutes,11 mg
